Data on 13 compounds can be found in patent US20150250173A1, “PESTICIDALLY ACTIVE MIXTURES COMPRISING ANTHRANILAMIDE COMPOUNDS” (BASF SE, priority 2012, published 2015).

Common to all, as to assay type: cell-based
Holding throughout (settings): single compound, 7 days

In one assay the test system is Pyricularia oryzae.
For the next assay, the system named is Phytophthora infestans.
A further assay deals with Septoria tritici. As to the kind of experiment: Activity against leaf blotch on wheat caused by Septoria tritici (Septtr), microtiter plate.
A further assay relates to Botrytis cinerea. The assay can be described thus: Activity against the grey mold Botrytis cinerea in the microtiterplate test (Botrci).

Where two headings read alike, the source gives them in different places.

For `CO/C=C(/C(=O)OC)c1ccccc1Oc1cc(Oc2ccccc2C#N)ncn1` [Azoxystrobin], in the assay with Pyricularia oryzae (0.016 ppm), the Observed efficacy amounted to 38.

Turning to `O=C(Nc1ccccc1-c1ccc(Cl)cc1)c1cccnc1Cl` [Boscalid], in the assay on Pyricularia oryzae (16 ppm), the Observed efficacy amounted to 10.

`CCS(CC)=NC(=O)c1cc(Cl)cc(C)c1NC(=O)c1cc(C(F)(F)F)nn1-c1ncccc1Cl` [Compound I-11, 2-(3-chloro-2-pyridyl)-N-[2-methyl-4-chloro-6-[(diethyl-λ^4-sulfanylidene)carbamoyl]phenyl]-5-(trifluoromethyl)pyrazole-3-carboxamide]: the Observed efficacy with Pyricularia oryzae (1 ppm) stood at 0; in the assay on Pyricularia oryzae (4 ppm), 3; in the assay with Pyricularia oryzae (63 ppm) it was 10.

With `CCS(CC)=NC(=O)c1cc(Cl)cc(Cl)c1NC(=O)c1cc(C(F)(F)F)nn1-c1ncccc1Cl` [Compound I-16, 2-(3-chloro-2-pyridyl)-N-[2,4-dichloro-6-[(diethyl-λ^4-sulfanylidene)carbamoyl]phenyl]-5-(trifluoromethyl)pyrazole-3-carboxamide], the Observed efficacy amounted to 23 in the assay with Phytophthora infestans (16 ppm); 16 in the assay on Septoria tritici (4 ppm); 17 with Septoria tritici (63 ppm); 3 with Pyricularia oryzae (1 ppm); 4 in the assay with Pyricularia oryzae (4 ppm).

`Cc1cc(Cl)cc(C(=O)N=S(C(C)C)C(C)C)c1NC(=O)c1cc(C(F)(F)F)nn1-c1ncccc1Cl` [Compound I-21, 2-(3-chloro-2-pyridyl)-N-[2-methyl-4-chloro-6-[(bis-2-propyl-λ^4-sulfanylidene)carbamoyl]phenyl]-5-(trifluoromethyl)pyrazole-3-carboxamide]: the Observed efficacy in the assay with Septoria tritici (4 ppm) came to 12; with Pyricularia oryzae (1 ppm) it was 0; with Pyricularia oryzae (4 ppm) it was 0; in the assay with Botrytis cinerea (4 ppm), 0; in the assay with Botrytis cinerea (16 ppm), 4.

`Fc1ccc([C@]2(Cn3cncn3)O[C@H]2c2ccccc2Cl)cc1` [Epoxiconazol] returned an Observed efficacy with Botrytis cinerea (0.25 ppm) of 59.

For the compound `CO/N=C(/C1=NOCCO1)c1ccccc1Oc1ncnc(Oc2ccccc2Cl)c1F` [Fluoxastrobin], in the assay on Septoria tritici (0.25 ppm), the Observed efficacy stood at 70.

In the case of `CO/C=C(/C(=O)OC)c1ccccc1COc1cccc(C(F)(F)F)n1` [Picoxystrobin], the Observed efficacy is 53 with Septoria tritici (0.063 ppm) and 72 in the assay on Pyricularia oryzae (0.063 ppm).

`CCCN(CCOc1c(Cl)cc(Cl)cc1Cl)C(=O)n1ccnc1` [Prochloraz] gave an Observed efficacy in the assay on Botrytis cinerea (0.016 ppm) of 14.

As to `OC(Cc1ccccc1Cl)(Cn1nc[nH]c1=S)C1(Cl)CC1` (stereo not shown) [Prothioconazol], the Observed efficacy in the assay on Septoria tritici (0.063 ppm) came to 62.

As for `COC(=O)N(OC)c1ccccc1COc1ccn(-c2ccc(Cl)cc2)n1` [Pyraclostrobin], the Observed efficacy in the assay with Phytophthora infestans (0.063 ppm) came out at 10; in the assay on Pyricularia oryzae (0.004 ppm) it was 39; in the assay on Pyricularia oryzae (0.016 ppm), 49.

`CON=C(C(=O)OC)c1ccccc1CON=C(C)c1cccc(C(F)(F)F)c1` [Trifloxystrobin]: the figures for the Observed efficacy with Septoria tritici (0.016 ppm), with Pyricularia oryzae (0.016 ppm) and with Pyricularia oryzae (0.063 ppm) were 62, 29 and 29, respectively.

In turn, Mancozeb yielded an Observed efficacy in the assay on Septoria tritici (4 ppm) of 48.
